The results in this text go back to patent US20240318160A1 (Wisconsin Alumni Research Foundation, priority 2023, published 2024).

Common to all, as to assay type: biochemical
Assay [1] concerns the target Arabidopsis thaliana AtPAL1 variant F144H (AtPAL1^F144H), SEQ ID NO: 261 (Arabidopsis thaliana, UniProt P35510, F144H). In words: TAL and PAL enzyme kinetics. Particulars: TAL assay (L-Tyr), pH 8.5, 30° C. As to the method:
(§1) A mixture containing 100 mM Tris-HCl (pH 8.5), 1% glycerol, and purified enzyme in a total volume of 50 μl was preincubated for 3 min at 30° C. […] The reactions were terminated by addition of 6N acetic acid (10 μl).
(§2) The kinetic parameters of the recombinant enzymes were determined using HPLC. Reaction mixtures containing 100 mM Tris-HCl (pH 8.5), 1% glycerol, and purified enzyme (0.15 μg for PAL assay and 1 μg for TAL assay) in a 50 μl total volume were preincubated for 3 min at 30° C. […] After 10 min and 20 min incubations for PAL and TAL assay, respectively, at 30° C., the reaction was terminated by addition of 6N acetic acid (10 μl). […] The products were quantified using calibration curves generated using authentic standards. Non-linear hyperbolic regression analyses were conducted using the Excel Solver tool to calculate Km and Vmax values.

In assay [2] the test system is Ecdeiocolea monostachya EmoPAL variant F134H (EmoPAL^F134H). Nature of the assay: TAL and PAL enzyme kinetics. Particulars: TAL assay (L-Tyr), pH 8.5, 30° C. As to the method:
as §1, §2

The subject of assay [3] is Ecdeiocolea monostachya EmoPTAL variant H127F (EmoPTAL^H127F). In words: TAL and PAL enzyme kinetics. Particulars: TAL assay (L-Tyr), pH 8.5, 30° C. As for the experimental part:
as §1, §2

The subject of assay [4] is Joinvillea ascendens JaPTAL, wild type, SEQ ID NO: 27. In words: TAL and PAL enzyme kinetics. To be noted: TAL assay (L-Tyr), pH 8.5, 30° C. As to the method:
as §1, §2

In assay [5] the test system is Sorghum bicolor SbPAL variant F135H (SbPAL^F135H). Nature of the assay: TAL and PAL enzyme kinetics. Particulars: TAL assay (L-Tyr), pH 8.5, 30° C. As for the experimental part: as §1, §2
For assay [6], the system named is Streptochaeta angustifolia SaPTAL-a variant H118F (SaPTAL-a^H118F). In words: TAL and PAL enzyme kinetics. Particulars: TAL assay (L-Tyr), pH 8.5, 30° C. As to the method: as §1, §2
Assay [7] has as its system Streptochaeta angustifolia SaPTAL-b variant H126F (SaPTAL-b^H126F). In words: TAL and PAL enzyme kinetics. Particulars: TAL assay (L-Tyr), pH 8.5, 30° C. As for the experimental part:
as §1, §2

Assay [8] concerns Joinvillea ascendens JaPAL^F140H_MUT8 variant A448S. In words: TAL and PAL enzyme kinetics. Particulars: TAL assay (L-Tyr), pH 8.5, 30° C. As for the experimental part:
(§3) To determine which of the 8 circle residues are essential in the conversion of PAL enzymes to PTAL enzymes (FIG. 3C), we mutated, one by one, each one of these 8 residues back to the PAL type in JaPAL^F140H_MUT8 and determined their effects on catalytic efficiency.
as §1, §2

For assay [9], the system named is Joinvillea ascendens JaPAL^F140H_MUT8 variant G121A. Nature of the assay: TAL and PAL enzyme kinetics. To be noted: TAL assay (L-Tyr), pH 8.5, 30° C. As to the method:
as §3, §1, §2

In assay [10] the test system is Joinvillea ascendens JaPAL^F140H_MUT8 variant I102V. Nature of the assay: TAL and PAL enzyme kinetics. Particulars: TAL assay (L-Tyr), pH 8.5, 30° C. As to the method: as §3, §1, §2
Assay [11] has as its system Joinvillea ascendens JaPAL^F140H_MUT8 variant I122S (in Table 3; I112S in text). Nature of the assay: TAL and PAL enzyme kinetics. Particulars: TAL assay (L-Tyr), pH 8.5, 30° C. As to the method: as §3, §1, §2
Assay [12] deals with Joinvillea ascendens JaPAL^F140H_MUT8 variant L138I. In words: TAL and PAL enzyme kinetics. To be noted: TAL assay (L-Tyr), pH 8.5, 30° C. As for the experimental part: as §3, §1, §2
The test system of assay [13] is Joinvillea ascendens JaPAL^F140H_MUT8 variant S267A. In words: TAL and PAL enzyme kinetics. To be noted: TAL assay (L-Tyr), pH 8.5, 30° C. As for the experimental part: as §3, §1, §2
For assay [14], the system named is Joinvillea ascendens JaPAL^F140H_MUT8 variant T444P. In words: TAL and PAL enzyme kinetics. Particulars: TAL assay (L-Tyr), pH 8.5, 30° C. As to the method:
as §3, §1, §2

For assay [15], the system named is Joinvillea ascendens JaPAL^F140H_MUT8 variant V500I. Nature of the assay: TAL and PAL enzyme kinetics. Particulars: TAL assay (L-Tyr), pH 8.5, 30° C. As to the method: as §3, §1, §2
Assay [16] deals with Joinvillea ascendens JaPAL variant F140H/S112I (JaPAL^F140H_S112I), SEQ ID NO: 145. Nature of the assay: TAL and PAL enzyme kinetics. To be noted: TAL assay (L-Tyr), pH 8.5, 30° C. As to the method: To test this hypothesis further, the reciprocal S112I mutation was introduced into the JaPAL^F140H single mutant to generate the JaPAL^F140H_S112I double mutant. For comparison, a single mutant in which the residue corresponding to Ser112 was converted to Ile (i.e., JaPAL^S112I) was generated as well.
as §1, §2

In assay [17] the test system is wild-type PTAL enzymes (SbPTAL, BdPTAL, SaPTAL-a, SaPTAL-b, EmoPTAL, JaPTAL). Nature of the assay: TAL enzyme kinetics, group of enzymes. Particulars: TAL activity (Tyr), range over PTAL enzymes; read-out: apparent Km. As for the experimental part:
as §2

Assay [18] relates to PTAL^H140F mutants (SbPTAL^H123F, BdPTAL^H123F, SaPTAL-a^H118F, SaPTAL-b^H126F, EmoPTAL^H127F, JaPTAL^H125F). Nature of the assay: TAL and PAL enzyme kinetics, group of enzymes. Particulars: TAL activity, range over mutants. From the text:
To experimentally test the role of His 140 in the acquisition of TAL activity, we next conducted site-directed mutagenesis on the PAL and PTAL enzymes of grasses and non-grass graminids characterized above and analyzed their effects on TAL activity. For the PAL enzymes, the residue corresponding to Phe 140 was converted to His to generate JaPAL^F140H EmoPAL^F134H, BdPAL^F137H, and SbPAL^F135H. […] For the PTAL enzymes, the residue corresponding to His 140 was converted to Phe to generate SbPTAL^H123F, BdPTAL^H123F, SaPTAL-a^H118F, SaPTAL-b^H126F, EmoPTAL^H127F, and JaPTAL^H125F. […] Thus, unlike in the bacterial TAL enzyme (Watts et al., 2006), other residues besides the His 140 are likely important for the acquisition of strong TAL activity in the PTAL enzymes of grasses and closely-related non-grass graminids.
The kinetic parameters of the recombinant enzymes were determined using HPLC. Reaction mixtures containing 100 mM Tris-HCl (pH 8.5), 1% glycerol, and purified enzyme (0.15 μg for PAL assay and 1 μg for TAL assay) in a 50 μl total volume were preincubated for 3 min at 30° C. PAL and TAL reactions were started by addition of 50 μl substrate solution prepared with 0-4 mM L-Phe and 0-2 mM L-Tyr. After 10 min and 20 min incubations for PAL and TAL assay, respectively, at 30° C., the reaction was terminated by addition of 6N acetic acid (10 μl). […] The products were quantified using calibration curves generated using authentic standards. Non-linear hyperbolic regression analyses were conducted using the Excel Solver tool to calculate Km and Vmax values.

Assay [19] has as its system PAL^F140H mutants (JaPAL^F140H, EmoPAL^F134H, BdPAL^F137H, SbPAL^F135H). Nature of the assay: TAL and PAL enzyme kinetics, group of enzymes. To be noted: TAL activity, range over mutants. As for the experimental part:
as §2

Arabidopsis thaliana AtPAL1 variant F144H (AtPAL1^F144H), SEQ ID NO: 261, sequence (P35510 whole entry F144H): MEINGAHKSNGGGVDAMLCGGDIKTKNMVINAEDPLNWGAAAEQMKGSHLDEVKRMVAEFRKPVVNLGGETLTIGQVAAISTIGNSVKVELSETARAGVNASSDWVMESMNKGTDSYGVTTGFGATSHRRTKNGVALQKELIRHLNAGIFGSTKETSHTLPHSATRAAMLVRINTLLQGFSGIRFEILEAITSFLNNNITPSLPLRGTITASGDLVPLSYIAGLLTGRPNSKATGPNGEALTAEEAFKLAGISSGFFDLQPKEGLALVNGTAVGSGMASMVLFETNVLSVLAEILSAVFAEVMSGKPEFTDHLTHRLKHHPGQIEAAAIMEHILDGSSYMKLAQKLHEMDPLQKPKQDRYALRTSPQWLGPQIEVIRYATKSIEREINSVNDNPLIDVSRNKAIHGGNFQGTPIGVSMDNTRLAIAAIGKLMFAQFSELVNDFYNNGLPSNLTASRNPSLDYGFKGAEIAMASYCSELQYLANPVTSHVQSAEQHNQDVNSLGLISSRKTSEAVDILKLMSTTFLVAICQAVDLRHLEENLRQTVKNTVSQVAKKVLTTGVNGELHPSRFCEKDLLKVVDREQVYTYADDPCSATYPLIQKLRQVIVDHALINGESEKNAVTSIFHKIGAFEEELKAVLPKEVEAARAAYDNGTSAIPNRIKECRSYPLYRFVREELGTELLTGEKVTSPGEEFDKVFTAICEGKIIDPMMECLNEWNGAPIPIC

Take `N[C@@H](Cc1ccc(O)cc1)C(=O)O` [L-Tyr, tyrosine]: the kcat (as a rule, the maximal rate divided by the concentration of active sites) in assay [1] was determined as 0.01 ± 0.00 s⁻¹. For the same compound, the Km (as a rule, the substrate concentration at which the rate is half of its maximum) worked out at 450 ± 14.2 µM in assay [2]; 614 ± 18.1 µM in assay [3]; 11 ± 0.4 µM in assay [4]; 413 ± 6.5 µM in [5]; 531 ± 13.2 µM in assay [6]; 724 ± 54.8 µM in assay [7]. Also, the Km was 23.3 ± 1 µM in assay [8]; 12.6 ± 0.6 µM in [9]; 24.5 ± 1.4 µM in [10]; 282 ± 29 µM in assay [11]; 18.3 ± 0.6 µM in assay [12]; 43.1 ± 1.5 µM in assay [13]. For the same compound, the Michaelis constant (Km) is 25.3 ± 2.4 µM in assay [14]; 25.1 ± 3.2 µM in [15]; 17.2 ± 0.7 µM in [16]; 11 to 19 µM in [17]; 531 to 765 µM in assay [18]; 222 to 450 µM in assay [19].
